Experimental data reported in US20260151384A1, “ISOQUINOLINE DERIVATIVES AS PROTEIN DEGRADERS, E7 DEGRADERS, ANTIVIRALS, TUMOR THERAPEUTICS AND IMMUNE SUPPRESSIVES” (priority 2022, published 2026).

Key:
[1] = Pharmacokinetics of VSP034 and VSP035, oral liposomal formulation; type: in vivo, female Sprague-Dawley rats; conditions: 100 mg/kg oral gavage; Student's t test, significant
Procedure: The pharmacokinetic parameters of VSP034 and VSP035 encapsulated as liposomal formulation were assessed after the administration of a single 100 mg/kg dose by oral gavage to 6 female Sprague-Dawley rats weighting 250 grams (±25g). The animals were randomized into two experimental groups (Groups 1 and 2), each composed of 3 rats. Rats belonging to group 1 were administered with VSP034 and rats belonging to group 2 were administered with VSP035. Blood was collected at baseline and 15 min, 30 min, 1, 2, 4, 6, 8, and 24 hours after the oral gavage. The rats were sacrificed 24 hours after the dosing. Blood was collected at each timepoint from the caudal vein, with the exception of the last collection (24 hours), which was performed by intracardiac puncture at the moment of sacrifice under isoflurane anesthesia. The animals were weighted immediately before the dosing to assess the proper dose and carefully monitored during the experiment. […] The main pharmacokinetic parameters (half-life, t1/2; time to maximum plasma concentration, Tmax; maximum plasma concentration, Cmax, AUC Extrapolated to Infinity, AUC0-inf; mean residence time, MRT; Apparent Volume of Distribution During Terminal Phase, VZ/F; and apparent oral clearance, CL/F) were calculated from the coefficients and exponents of the best-fits by using standard formulae.

[2] = system: SARS-CoV-2; type: cell-based
[3] = system: SARS-CoV-2; experiment: SARS-CoV-2 antiviral activity, mono treatment or combinations, Vero E6 cells (Test 18); type: cell-based; conditions: 10, 5, 2.5, 1.25, 0.625 μM; FIG. 10
Excerpt: SARV-CoV-2 antiviral activity of VSP035 from mono treatment, or in combination with various pharmacological drug substances at various concentrations shown by the bars from left to the right. Y axis % Inhibition. Due to lethal concentrations for Vero E6 cells, dose dependency is visible at non-lethal doses only (median of multiple experiments n4 is shown); Concentrations (left to right) Compounds and respective assay concentrations in μM are, “constant” means same concentration for the series (X axis, numbers for series): (FIG. 10).

[4] = target: HPV16 E7 protein (Human papillomavirus type 16, UniProt P03129); experiment: Western blot of E7 steady state level in CaSki cells; type: cell-based; conditions: 10 μM, up to 24 hours
Procedure: Reagents for Extract preparation and Western Blotting: Extraction Buffer: 2.5× (Tris 0.25M pH6.8, Glycerol 50%, SDS 10%), Gels: 4-12% gradient gels (Bolt® 4-12% Bis-Tris Plus Gel). MES Buffer: 50 mM MES, 50 mM Tris Base, 0.1% SDS, 1 mM EDTA, pH 7.3, Blotting membrane: Nitrocelulose 0.2 μm (Whatman Protran #10401394), 3MM filter paper (e.g. Whatman 3MM Chr, #3030917). Western Detection Reagents: WB Wash Buffer 1× (TBET): 20 mM Tris, 150 mM NaCl, 0.125% Tween20, pH 7.8; skim-milk powder (less than 0.15% fat content). Phosphate buffered saline (PBS) 1×: prepared as 1 L add 8 g sodium chloride (NaCl), 0.2 g potassium chloride (KCl), 1.44 g sodium phosphate, dibasic (Na2HPO4) and 0.24 g potassium phosphate, monobasic (KH2PO4) to 1 L dH2O, pH adjusted to 7.2.
B) For cells in cell culture the following procedure for the preparation of a total cell extract is used. Freshly seeded cells are grown for 24 hours to obtain 65-75% confluency (corresponds for CaSki cells to a plating of approx. 2×10^6 cells/10 cm Ø cell culture dish). Cell culture dishes with medium are out on ice for 5 minutes. […]
Dilute secondary anti-mouse HRP antibody in WB Blocking Buffer according to manufacturer instruction (e.g. CST Anti mouse IgG HRP-linked Ab, #7076, 1:3000). […] The membranes are developed using standard chemo luminescence (ECL) detection systems following imaging with Licor or Viber devices. […]

[5] = system: PDL-1; experiment: Western blot of PDL-1 in CaSki cells; type: cell-based, human; conditions: 4 and 8 hours, dose dependent
Procedure: 24 h after seeding, cells were treated with VSP035, cycloheximide (CHX) and/or MG132 protasome inhibitor as indicated. Cells were harvested for analysis for BY WB. […] In particular, faster migrating band abundancy was regulated by proteasome inhibitor MG132 and the protein was destabilized in the presence of CHX.

[6] = system: 4E-BP1; experiment: Western blot of 4E-BP1 phosphorylation in CaSki cells; type: cell-based, human; conditions: 6 h, 10 μM & 5 μM
Excerpt: Thus, clearly distinguishing downstream-effects in comparison to a general TOR Kinase inhibition.

[7] = system: SARS-CoV-2; experiment: microbe, parasite or virus in culture; type: cell-based; conditions: 1.25 μM, n4
[8] = system: p38, JNK1, ERK1/2, PKC, or Src-like kinases; conditions: cited from earlier work

HPV16 E7 protein, sequence (P03129 whole entry): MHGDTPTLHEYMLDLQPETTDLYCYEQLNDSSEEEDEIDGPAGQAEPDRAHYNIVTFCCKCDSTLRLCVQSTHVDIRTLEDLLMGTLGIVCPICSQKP

CN1CCC(CN2C(=O)c3ccccc3[C@H](C(=O)Nc3cccc(N4CCN(C)CC4)c3)[C@H]2c2ccc(C(F)(F)F)cc2)CC1 [VSP035, (3S,4S)—N-[3-(4-methylpiperazin-1-yl)phenyl]-2-[(1-methylpiperidin-4-yl)methyl]-1-oxo-3-[4-(trifluoromethyl)phenyl]-1,2,3,4-tetrahydroisoquinoline-4-carboxamide]
AUC higher than that of VSP034 [1]: 4 fold
inhibition [2]: 72±7.7%
antiviral activity as single agent [3]: Robust antiviral activities
HPV 16 E7 protein degradation time course (western blot) [4]: stable e7 reduction
regulation of PDL-1 (western blot) [5]: valid pdl-1 destabilizer
phosphorylation state of 4E-BP1 [6]: dose dependent hypophosphorylation

Nc1ncnc2n[nH]c(Nc3ccc(F)cc3)c12 [CGP57380]
% Inhibition of SARV-CoV-2 virus activity [7]: 17.71%
inhibitory activity against p38, JNK1, ERK1/2, PKC, or Src-like kinases [8]: no inhibitory activity
